Measurements: US20240100013A1, “SOTAGLIFLOZIN FOR IMPROVING LEFT ATRIAL FUNCTION” (CHARITÉ-UNIVERSITÄTSMEDIZIN BERLIN, priority 2021, published 2024)

Experiments:
HFpEF (ZSF-1 obese) rats = assay: Echocardiography of LA size in the ZSF-1 obese rat model of HFpEF after chronic treatment; assay type: in vivo; settings: 30 mg/kg/day oral feeding, seven weeks, vs vehicle
Source text: Animal experiments were approved by local authorities. The ZSF-1 obese rat model is based on a leptin receptor mutation resulting in severe metabolic dysfunction. See Bilan V P, Salah E M, Bastacky S, Jones H B, Mayers R M, Zinker B, Poucher S M, Tofovic S P: “Diabetic nephropathy and long-term treatment effects of rosiglitazone and enalapril in obese ZSF1 rats,” J Endocrinol 2011, 210(3):293-308. The model has repeatedly been reported to show distinct features of HFpEF, such as an increased left ventricular (LV) end diastolic pressure, LV hypertrophy, diastolic dysfunction, lung congestion and LA remodeling, while maintaining a preserved ejection fraction (EF).
Echocardiography. Echocardiography was performed and analyzed as previously described (See Hohendanner F, Bode D, Primessnig U, Guthof T, Doerr R, Jeuthe S, Reimers S, Zhang K, Bach D, Wakula P et al: “Cellular mechanisms of metabolic syndrome-related atrial decompensation in a rat model of HFpEF” J Mol Cell Cardiol 2018, 115:10-19) by an experienced observer (N.H.) blinded to the treatment group immediately prior to sacrifice using a vevo lab ultrasound system to assess LA size and LV fractional shortening in vivo. 1-lead electrocardiograms were obtained during echocardiography and the presence or absence of atrial rhythm disorders i.e., atrial fibrillation was documented.

LA cardiomyocytes [1] = assay: Ca2+ transient (CaT) measurements (Fura-2) in LA cardiomyocytes, incl. glucose starvation/reintroduction and glycolytic inhibition; assay type: cell-based, rat
Source text: Cardiomyocyte isolation. LA and LV cardiomyocytes were isolated using enzymatic digestion as previously described in detail. See Bode D, Guthof T, Pieske B M, Heinzel F R, Hohendanner F: “Isolation of Atrial Cardiomyocytes from a Rat Model of Metabolic Syndrome-related Heart Failure with Preserved Ejection Fraction,” J Vis Exp 2018(137).
Solutions and chemicals. Chemicals were obtained from Sigma-Aldrich (St. Louis, MO, USA) unless noted otherwise. The dual SGLT1/2 inhibitor sotagliflozin was provided by Lexicon Pharmaceuticals (The Woodlands, TX, USA). Fluorescent dyes Fura-2 AM, Rhod-2 AM, MitoTracker red, MitoTracker green, TMRE and H2-DCF were obtained from Thermo Fisher Scientific (Waltham, MA, USA). Tyrode solution contained (in mM): 130 NaCL, 4 KCl, 2 CaCl, 1 MgCl2, 10 Glucose, 10 HEPES; pH adjusted to 7.4 with NaOH. LA cardiomyocytes were plated on laminin-coated glass coverslips. 20 mM caffeine was added to Tyrode solution to induce sarcoplasmic reticulum (SR) Ca^2+ release and obtain a measure of SR Ca^2+ content. […] For glucose starvation (FIGS. 2H-J, 5A-D), glucose of Tyrode solution was replaced with 30 mM mannitol. For sub-sequent glucose reintroduction, mannitol was replaced with 30 mM glucose (“high glucose condition”).
Ca^2+ measurements and sarcomere shortening. Radiometric Ca^2+ measurements (excitation: 340 nm and 385 nm, emission: 510±10 nm; [Ca^2+] expressed as the ratio R=F340/F380) were performed either with a CytoCypher MultiCell System (CytoCypher BV, Netherlands; FIGS. 1C-F, 2D-G, 4A-F) or an Axiovert 200 microscope (Zeiss, Oberkochen, Germany) fluorescence imaging assembly (FIGS. 2A-C, 2H-J, 3A-E, 6E-I). LA cardiomyocytes were loaded with Fura-2 for 30 min at room temperature, washed twice with Tyrode solution and transferred to the microscope. Experiments were conducted at 37° C. and CaT were recorded at steady state (following electric stimulation).
CaT and sarcomere shortening of LA and LV cardiomyocytes were recorded for 10 s at 3 Hz stimulation. See FIGS. 2D-G, 4A-F. Electric stimulation was turned off and spontaneous SR Ca^2+ release events (See Voigt N, Heijman J, Wang Q, Chiang D Y, Li N, Karck M, Wehrens X H T, Nattel S, Dobrev D: “Cellular and molecular mechanisms of atrial arrhythmogenesis in patients with paroxysmal atrial fibrillation,” Circulation 2014, 129(2):145-156) (SCaEs) immediately recorded for a duration of 10 s (FIG. 1C-F). In a sub-set of LA cells, CaT were recorded for 10 s at 1 Hz stimulation. Electric stimulation was turned off, the cells immediately exposed to 20 mM caffeine and the sub-sequent caffeine-induced CaT recorded for 10 s (FIG. 2A-C, 3A-E). Sodium-calcium exchanger (NCX) activity was calculated as previously described. See Hohendanner F, Walther S, Maxwell J T, Kettlewell S, Awad S, Smith G L, Lonchyna V A, Blatter L A: “Inositol-1,4,5-trisphosphate induced Ca^2+ release and excitation-contraction coupling in atrial myocytes from normal and failing hearts,” J Physiol 2015, 593(6):1459-1477.
Cells were treated with 2-deoxyglucose to inhibit glycolysis for a duration of 3 min, while maintaining steady stimulation at 1 Hz and CaT were recorded for another 10 s. A sub-set of cells was starved of glucose for 1 h at 37° C. CaT were recorded for 10 s at 1 Hz stimulation. See FIGS. 2H-J. Cells were exposed to glucose and constant electric pacing at 1 Hz was maintained. After 1 min, CaT transients were recorded for 10 s at 1 Hz stimulation.

LA cardiomyocytes [2] = assay: ROS production (H2-DCF) in LA cardiomyocytes; assay type: cell-based, rat; settings: HFpEF
Experimental: ROS production. LA cardiomyocytes were starved of glucose for 1 h at 37° C., loaded with H2-DCF and transferred to an LSM 800 laser scanning microscope. Two-dimensional images (excitation: 488 nm, emission: […]) were acquired for a duration of 30 s (interval: 2 s, resolution: 256×256 px, pixel size: 0.624 μm, pixel time: 8.24 μs, laser intensity: 0.6%). Cells were exposed to 30 mM glucose and another set of images acquired for a duration of 90 s. Image sequences acquired between 0-30 s (glucose starved) and 90-120 s (glucose saturated) were individually assessed. H2-DCF signal intensity (F) of the initial image was defined as F0, reactive oxygen species (ROS) accumulation calculated as ΔF=F−F0 per image, averaged per image sequence and reported as the respective rate ΔF/(F0*t).

[3] = setting of diabetes; cited from earlier work
[4] = HFpEF, 2-deoxyglucose, 3 min, 1 Hz
[5] = HFpEF, 3 Hz, 5 mM extracellular [Ca2+]
[6] = baseline, 1 Hz, 2 mM Ca2+, chronic treatment

With CCOc1ccc(Cc2cc([C@@H]3O[C@H](SC)[C@@H](O)[C@H](O)[C@H]3O)ccc2Cl)cc1 [sotagliflozin, (2S,3R,4R,5S,6R)-2-(4-chloro-3-(4-ethoxybenzyl)phenyl)-6-(methylthio)tetrahydro-2H-pyran-3,4,5-triol] the “LA enlargement (LA volume in vivo)” value (HFpEF (ZSF-1 obese) rats) was “mitigates LA enlargement”, the “increased CaT amplitude gain upon glycolytic inhibition” value (LA cardiomyocytes [1]; [4]) was “prevented” and the “increased influx of diastolic Ca2+ upon glycolytic inhibition” value (LA cardiomyocytes [1]; [4]) was “prevented”. The CaT amplitudes (LA cardiomyocytes [1]; [5]) was “unchanged”, the “diastolic [Ca2+]” value (LA cardiomyocytes [1]; [5]) was “significant reduction” and the “glucose-mediated influx of diastolic Ca2+” value (LA cardiomyocytes [1]; HFpEF, 1 h glucose starvation, then 30 mM glucose) was “prevented”. For the same compound, the CaT amplitude (LA cardiomyocytes [1]; [6]) was “did not alter”, the “diastolic [Ca2+]” value (LA cardiomyocytes [1]; [6]) was “did not alter” and the “decrease of ROS production after reintroduction of glucose” value (LA cardiomyocytes [2]; 30 mM glucose) was “this effect could not be observed”. The ROS production (LA cardiomyocytes [2]; after 1 h glucose starvation) was “significantly reduced” and the “effects on blood pressure and body weight” value [3] was “beneficial effects”.
